Assay results from ChEMBL document CHEMBL1201862, “PubChem BioAssay data set” (2004).
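Tested at 5 concentrations; 48 h exposure; 96-well plates; endpoints linearly interpolated, else capped at highest concentration. GI50 = concentration required for 50% inhibition of growth.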 The source made the active and inactive calls. No stated cut-off is given here; in the data, active = GI50 up to about 1.1 µM and inactive = higher.

How the values were obtained:
Assay in all cases: DTP human tumour cell line panel, 48 h
OVCAR-8 = tested on: OVCAR-8
MDA-N = tested on: MDA-N
SF-539 = tested on: SF-539
MDA-MB-435 = tested on: MDA-MB-435
UACC-257 = tested on: UACC-257
TK-10 = tested on: TK-10
HT-29 = tested on: HT-29
NCI/ADR-RES = tested on: NCI/ADR-RES
SNB-75 = tested on: SNB-75
M14 = tested on: M14
SK-OV-3 = tested on: SK-OV-3
OVCAR-4 = tested on: OVCAR-4
HOP-62 = tested on: HOP-62
MDA-MB-231 = tested on: MDA-MB-231
A498 = tested on: A498
SF-295 = tested on: SF-295
OVCAR-5 = tested on: OVCAR-5
HCT-116 = tested on: HCT-116
SF-268 = tested on: SF-268
HCT-15 = tested on: HCT-15
EKVX = tested on: EKVX
SK-MEL-5 = tested on: SK-MEL-5
A549 = tested on: A549
UO-31 = tested on: UO-31
PC-3 = tested on: PC-3
BT-549 = tested on: BT-549
OVCAR-3 = tested on: OVCAR-3
SW-620 = tested on: SW-620
SNB-19 = tested on: SNB-19
ACHN = tested on: ACHN
HL-60 = tested on: HL-60
MOLT-4 = tested on: MOLT-4
NCI-H226 = tested on: NCI-H226
K562 = tested on: K562
COLO 205 = tested on: COLO 205
SK-MEL-2 = tested on: SK-MEL-2
HOP-92 = tested on: HOP-92
RXF 393 = tested on: RXF 393
DU-145 = tested on: DU-145
MCF7 = tested on: MCF7
CCRF-CEM = tested on: CCRF-CEM
IGROV-1 = tested on: IGROV-1
RPMI-8226 = tested on: RPMI-8226
786-0 = tested on: 786-0
T47D = tested on: T47D
Hs-578T = tested on: Hs-578T
SN12C = tested on: SN12C
KM12 = tested on: KM12
U-251 = tested on: U-251
NCI-H23 = tested on: NCI-H23
HCC 2998 = tested on: HCC 2998
UACC-62 = tested on: UACC-62
NCI-H522 = tested on: NCI-H522
CAKI-1 = tested on: CAKI-1
LOX IMVI = tested on: LOX IMVI
NCI-H460 = tested on: NCI-H460
SK-MEL-28 = tested on: SK-MEL-28
Malme-3M = tested on: Malme-3M

CCOC(=O)Cc1csc(N/N=C2\C(=O)Nc3ccccc32)n1
GI50 (OVCAR-8): 40.6 µM (inactive) | GI50 (MDA-N): 41.8 µM (inactive) | GI50 (SF-539): 30.7 µM (inactive) | GI50 (MDA-MB-435): 55.6 µM (inactive) | GI50 (UACC-257): 74.5 µM (inactive) | GI50 (TK-10): > 100 µM (inactive) | GI50 (HT-29): 42.6 µM (inactive) | GI50 (NCI/ADR-RES): 31.8 µM (inactive) | GI50 (SNB-75): 28.2 µM (inactive) | GI50 (M14): 41.7 µM (inactive) | GI50 (SK-OV-3): 49.4 µM (inactive) | GI50 (OVCAR-4): 56.9 µM (inactive) | GI50 (HOP-62): 36.5 µM (inactive) | GI50 (MDA-MB-231): 43 µM (inactive) | GI50 (A498): 27.4 µM (inactive) | GI50 (SF-295): 38.7 µM (inactive) | GI50 (OVCAR-5): > 100 µM (inactive) | GI50 (HCT-116): 40.1 µM (inactive) | GI50 (SF-268): 66.8 µM (inactive) | GI50 (HCT-15): 41 µM | GI50 (EKVX): 32.1 µM (inactive) | GI50 (SK-MEL-5): 21.7 µM (inactive) | GI50 (A549): 41.6 µM (inactive) | GI50 (UO-31): 27.3 µM (inactive) | GI50 (PC-3): 30.1 µM (inactive) | GI50 (BT-549): 32.7 µM (inactive) | GI50 (OVCAR-3): 25.3 µM (inactive) | GI50 (SW-620): 48.9 µM (inactive) | GI50 (SNB-19): 26.9 µM (inactive) | GI50 (ACHN): 32.4 µM (inactive) | GI50 (HL-60): 19.7 µM (inactive) | GI50 (MOLT-4): 29 µM (inactive) | GI50 (NCI-H226): 30.2 µM (inactive) | GI50 (K562): 40.4 µM (inactive) | GI50 (COLO 205): 28.6 µM (inactive) | GI50 (SK-MEL-2): 52.6 µM (inactive) | GI50 (HOP-92): 42.2 µM (inactive) | GI50 (RXF 393): 87.1 µM (inactive) | GI50 (DU-145): 76.7 µM (inactive) | GI50 (MCF7): 33.1 µM (inactive) | GI50 (CCRF-CEM): 28.4 µM (inactive) | GI50 (IGROV-1): 17.4 µM (inactive) | GI50 (RPMI-8226): 36.5 µM (inactive) | GI50 (786-0): 69.5 µM (inactive) | GI50 (T47D): 27.7 µM (inactive) | GI50 (Hs-578T): 56.1 µM (inactive) | GI50 (SN12C): > 100 µM (inactive) | GI50 (KM12): 31.2 µM (inactive) | GI50 (U-251): 42.4 µM (inactive) | GI50 (NCI-H23): 32.6 µM (inactive) | GI50 (HCC 2998): 59 µM (inactive) | GI50 (UACC-62): 42.2 µM (inactive) | GI50 (NCI-H522): 19 µM (inactive) | GI50 (CAKI-1): 32.5 µM (inactive) | GI50 (LOX IMVI): 48.8 µM (inactive) | GI50 (NCI-H460): 33.4 µM (inactive)

O=C(O)CNC(=O)c1ccc([As](=O)(O)O)cc1
GI50 (OVCAR-8): > 100 µM (inactive) | GI50 (MDA-N): > 100 µM (inactive) | GI50 (MDA-MB-435): > 100 µM (inactive) | GI50 (TK-10): > 100 µM (inactive) | GI50 (HT-29): > 100 µM (inactive) | GI50 (NCI/ADR-RES): > 100 µM (inactive) | GI50 (SK-MEL-28): > 100 µM (inactive) | GI50 (SNB-75): > 100 µM (inactive) | GI50 (M14): > 100 µM (inactive) | GI50 (SK-OV-3): > 100 µM (inactive) | GI50 (OVCAR-4): > 100 µM (inactive) | GI50 (HOP-62): > 100 µM (inactive) | GI50 (MDA-MB-231): > 100 µM (inactive) | GI50 (A498): > 100 µM (inactive) | GI50 (SF-295): > 100 µM (inactive) | GI50 (OVCAR-5): > 100 µM (inactive) | GI50 (HCT-116): > 100 µM (inactive) | GI50 (SF-268): > 100 µM (inactive) | GI50 (HCT-15): > 100 µM | GI50 (EKVX): > 100 µM (inactive) | GI50 (SK-MEL-5): > 100 µM (inactive) | GI50 (A549): > 100 µM (inactive) | GI50 (UO-31): > 100 µM (inactive) | GI50 (PC-3): > 100 µM (inactive) | GI50 (BT-549): > 100 µM (inactive) | GI50 (OVCAR-3): > 100 µM (inactive) | GI50 (SW-620): > 100 µM (inactive) | GI50 (SNB-19): > 100 µM (inactive) | GI50 (ACHN): > 100 µM (inactive) | GI50 (HL-60): > 100 µM (inactive) | GI50 (MOLT-4): > 100 µM (inactive) | GI50 (NCI-H226): > 100 µM (inactive) | GI50 (K562): > 100 µM (inactive) | GI50 (COLO 205): > 100 µM (inactive) | GI50 (SK-MEL-2): > 100 µM (inactive) | GI50 (HOP-92): > 100 µM (inactive) | GI50 (RXF 393): > 100 µM (inactive) | GI50 (DU-145): > 100 µM (inactive) | GI50 (Malme-3M): > 100 µM (inactive) | GI50 (MCF7): > 100 µM (inactive) | GI50 (CCRF-CEM): > 100 µM (inactive) | GI50 (IGROV-1): > 100 µM (inactive) | GI50 (RPMI-8226): > 100 µM (inactive) | GI50 (786-0): > 100 µM (inactive) | GI50 (T47D): > 100 µM (inactive) | GI50 (Hs-578T): > 100 µM (inactive) | GI50 (SN12C): > 100 µM (inactive) | GI50 (KM12): > 100 µM (inactive) | GI50 (U-251): > 100 µM (inactive) | GI50 (NCI-H23): > 100 µM (inactive) | GI50 (UACC-62): > 100 µM (inactive) | GI50 (NCI-H522): > 100 µM (inactive) | GI50 (CAKI-1): > 100 µM (inactive) | GI50 (LOX IMVI): > 100 µM (inactive) | GI50 (NCI-H460): > 100 µM (inactive)
